# How the values were obtained:
# Test in all cases: relative viability (nuclei count vs DMSO), 5 days (fraction); higher = more cells survive
# [1] = compound: C1=CC=C(C(=C1)C2=CC=C(C=C2)C3=CSC4=C3C(=C(C(=O)N4)C#N)O)O + Cc1cc(Nc2cc(N3CCN(C)CC3)nc(Sc3ccc(NC(=O)C4CC4)cc3)n2)n[nH]1 [Tozasertib] (partner 0.1 µM)
# Method in brief: (§1)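 Each reported value is a median over duplicate plates. It expresses relative viability: treated-well nuclei count divided by vehicle-well nuclei count. Lung cancer cell lines in 1536-well plates were dosed by pin tool a day after seeding, alone with one drug or with a fixed anchor-drug dose plus five library-drug doses (not always all listed) in √10 steps, and nuclei were counted after 5 days.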
# [2] = compound: CC1=CN2C(=O)C=C(N=C2C(=C1)C(C)NC3=CC=CC=C3)N4CCOCC4 [TGX 221] + CC(=O)Nc1cccc(-n2c(=O)n(C3CC3)c(=O)c3c(Nc4ccc(I)cc4F)n(C)c(=O)c(C)c32)c1 [Trametinib] (partner 0.02 µM)
# Method in brief: as §1
# [3] = compound: CC1=CN2C(=O)C=C(N=C2C(=C1)C(C)NC3=CC=CC=C3)N4CCOCC4 [TGX 221] + Nc1nc2[nH]cc(CCc3ccc(C(=O)N[C@@H](CCC(=O)O)C(=O)O)cc3)c2c(=O)[nH]1 [Pemetrexed] (partner 0.2 µM)
# Method in brief: as §1
# [4] = compound: O=C(CCCCCCNC(=O)c1cnc(N(c2ccccc2)c2ccccc2)nc1)NO [Ricolinostat] + Cc1nc(Nc2ncc(C(=O)Nc3c(C)cccc3Cl)s2)cc(N2CCN(CCO)CC2)n1 [Dasatinib] (partner 0.075 µM)
# Method in brief: as §1
Cell Line,relative viability ([1]; first compound 0.08 µM),relative viability ([1]; first compound 0.253 µM),relative viability ([1]; first compound 0.8 µM),relative viability ([1]; first compound 2.53 µM),relative viability ([1]; first compound 8 µM),relative viability ([2]; first compound 0.08 µM),relative viability ([2]; first compound 0.253 µM),relative viability ([2]; first compound 0.8 µM),relative viability ([2]; first compound 2.53 µM),relative viability ([2]; first compound 8 µM),relative viability ([3]; first compound 0.08 µM),relative viability ([3]; first compound 0.253 µM),relative viability ([3]; first compound 0.8 µM),relative viability ([3]; first compound 2.53 µM),relative viability ([3]; first compound 8 µM),relative viability ([4]; first compound 0.08 µM),relative viability ([4]; first compound 0.253 µM),relative viability ([4]; first compound 0.8 µM),relative viability ([4]; first compound 2.53 µM)
NCI-H2342,0.498,0.493,0.543,0.399,0.48,0.814,0.763,0.8,0.632,0.93,0.681,0.792,0.748,0.708,0.754,0.32,0.311,0.365,0.293
NCI-H2347,0.574,0.461,1.06,0.526,0.583,0.23,0.258,0.265,0.304,0.213,0.467,0.414,0.445,0.386,0.389,0.318,0.372,0.309,0.285
NCI-H2405,0.718,0.797,0.733,0.725,0.704,0.529,0.571,0.461,0.465,0.436,1.01,1.05,1.07,0.952,0.885,0.229,0.205,0.183,0.193
NCI-H3122,0.355,0.451,0.451,0.507,0.419,0.244,0.188,0.224,0.211,0.257,0.198,0.203,0.201,0.206,0.207,0.791,0.903,0.899,0.562
PC-3 [JPC-3],0.606,0.401,0.928,0.876,0.716,0.662,0.701,0.668,0.595,0.571,1.08,1.09,1.11,1.04,1,,0.905,0.993,0.903
PC-14,0.63,0.753,0.542,0.556,0.436,0.666,0.701,0.701,0.717,0.515,0.135,0.125,0.134,0.145,0.118,0.243,0.248,0.267,0.233
RERF-LC-KJ,0.488,0.474,0.52,0.527,0.463,0.686,0.756,0.83,0.775,0.753,0.479,0.471,0.484,0.465,0.475,0.743,0.759,0.748,0.518
SK-LU-1,0.319,0.265,0.293,0.379,0.306,0.483,0.672,0.542,0.356,0.41,0.923,0.89,0.907,0.898,0.838,0.16,0.153,0.18,0.175

# From the supplement of paper PMC10307832
